Laboratory results: US20220323548A1 (priority 2019, published 2022)
Positions of bridges follow the written chain, without caps; N, C: chain ends. Chains are numbered I, II in the order given. No end group written: not given here. *: point of attachment. X1 = CC(=O)N[C@@H]1[C@@H](O)[C@H](O[C@@H]2O[C@H](CO)[C@@H](O[C@@H]3O[C@H](CO[C@H]4O[C@H](CO)[C@@H](O)[C@H](O)[C@@H]4O[C@@H]4O[C@H](CO)[C@@H](O[C@@H]5O[C@H](CO[C@]6(C(=O)OCc7ccccc7)C[C@H](O)[C@@H](NC(C)=O)[C@H]([C@H](O)[C@H](O)CO)O6)[C@H](O)[C@H](O)[C@H]5O)[C@H](O)[C@H]4NC(C)=O)[C@@H](O)[C@H](O[C@H]4O[C@H](CO)[C@@H](O)[C@H](O)[C@@H]4O[C@@H]4O[C@H](CO)[C@@H](O[C@@H]5O[C@H](CO[C@]6(C(=O)OCc7ccccc7)C[C@H](O)[C@@H](NC(C)=O)[C@H]([C@H](O)[C@H](O)CO)O6)[C@H](O)[C@H](O)[C@H]5O)[C@H](O)[C@H]4NC(C)=O)[C@@H]3O)[C@H](O)[C@H]2NC(C)=O)[C@@H](CO)O[C@H]1NC(=O)C*; undeca‑saccharide = not defined here; Decanoyl = CCCCCCCCCC(=O)*

Key:
rat islets = assay: Glucose-dependent insulin secretion from rat islets, rat insulin ELISA (part II); format: cell-based; details: 28 mM glucose, Table 9
Source text: The pancreas of 8-week-old SD rats (Damul Science) was extracted, and islets were isolated.

human GLP-1R [1] = biological target: human GLP-1R (Homo sapiens, UniProt P43220); assay: GLP-1 receptor luciferase reporter assay (part II, dimer analogs); details: CV-1 cells transfected with human GLP-1R and CRE, Table 8
human GLP-1R (Homo sapiens, UniProt P43220), sequence (P43220 24-463): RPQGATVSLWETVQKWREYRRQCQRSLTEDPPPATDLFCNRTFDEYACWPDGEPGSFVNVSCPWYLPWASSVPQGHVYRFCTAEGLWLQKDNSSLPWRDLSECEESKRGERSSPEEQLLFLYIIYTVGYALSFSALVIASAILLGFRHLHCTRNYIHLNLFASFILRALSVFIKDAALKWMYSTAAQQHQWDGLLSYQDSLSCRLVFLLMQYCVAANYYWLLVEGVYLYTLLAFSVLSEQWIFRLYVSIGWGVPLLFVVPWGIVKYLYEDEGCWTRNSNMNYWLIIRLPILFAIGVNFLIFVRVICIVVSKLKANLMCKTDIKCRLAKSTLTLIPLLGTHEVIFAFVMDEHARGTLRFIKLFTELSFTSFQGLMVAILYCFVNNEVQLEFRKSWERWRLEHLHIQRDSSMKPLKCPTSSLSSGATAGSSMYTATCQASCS
Procedure: Specifically, the fibroblast cell line CV-1 (1×10^4 cells/ml, Korea Cell Line Bank) was cultured on a 96-well white cell culture plate for 24 hours, and then human GLP-1R (pcDNA3.1_hGLP-1R) and cAMP response element (CRE, pcDNA3.1_hCRE) were added to perform transfection. After 24 hours, the medium was exchanged with a serum-free medium, followed by culture for 16 hours, and then each analog was treated for 6 hours. The expression level of luciferase, a reporter gene, by activated GLP-1R, was quantified by a luminometer, and the results are shown in Table 8.

C57BKS/J dbdb mice = assay: Anti-diabetic (blood glucose lowering) effect in Type 2 diabetes mouse models; details: 20 nmole/kg s.c., 0-48 hours
[2] = Pharmacokinetics after subcutaneous administration, Exendin-4 EIA (part II); details: mouse, in vivo, sc
human GLP-1R [3] = biological target: T1, human GLP-1R (human, UniProt P43220 24-463); assay: cell-based or functional assay
human GLP-1R [4] = biological target: T1, human GLP-1R; assay: cell-based or functional assay; remark: listed apart in the source

Row | Molecule | Insulin secretion from rat islets (rat islets; 10 nM analog) | Insulin secretion from rat islets (rat islets; 100 nM analog) | Emax (fold induction over basal) (human GLP-1R [1]) | anti-diabetic effect (blood glucose lowering) (C57BKS/J dbdb mice) | Tmax [2] | half-life [2] | fold change of EC50 level compared with Ex4 (luciferase reporter) (human GLP-1R [3]) | Emax (fold induction over basal), CRE-luciferase reporter (human GLP-1R [4])
1 | I: H-HGEGTFTSDLSKQMEECAVRLFIEWLKC(X1)GGPSK(Decanoyl)-OH / II: H-HGEGTFTSDLSKQMEECAVRLFIEWLKC(X1)GGPSK(Decanoyl)-OH (disulfide I:17-II:17) [AGM-212-2, AGM-212(E17C & N28C-11 sugar)-S-S-AGM-212(E17C & N28C-11 sugar)] | 14446.79 ± 654.34 pg/mL | 24954.72 ± 2741.89 pg/mL | 10.2 ± 1.3 fold induction over basal | increased degree of blood glucose lowering compared with Ex4 and AGM-212 | 2 h | 4.85 h | – | –
2 | HGEGTFTSDLSKQMEECAVRLFIEWLKC(undeca‑saccharide)GGPSK(Decanoyl) (reading uncertain; also: homodimer via Cys17–Cys17 disulfide) [AGM-212-2] | – | – | – | – | – | – | ≥ 6 fold | 10.2 fold induction over basal
